Values of other authors, collected in patent US9439866B2, “Trazodone composition for once a day administration” (priority 2005, dated 2016).
“Also recorded” adds a separate entry of the source.

- solubility below its pKa (acid media (stomach and upper intestines), pH below pKa): highly soluble
- solubility above its pKa (neutral and basic conditions of the lower intestine, pH above pKa): very low; also recorded: poorly soluble
Structure (SMILES): Cl.O=c1n(CCCN2CCN(c3cccc(Cl)c3)CC2)nc2ccccn12 [trazodone]
